“Also recorded” adds a separate entry of the source.
Assays:
[1] = Methylphenidate antagonism (mice biting corrugated paper); type: in vivo; conditions: Mus musculus, ip
Procedure: Methylphenidate antagonism (ED50 mg/kg i.p.)
Perspex observation cages without bottom and lid, consisting of 5 sections each measuring 12×25×30 cm. White corrugated paper. Mice, male, 18-25 g.
The test substance is given i.p. in the doses 0, 1/8, 1/32 and 1/128 of the determined "i.p. LD50". 3×2 mice are used for each dose level. Two or 24 hours after injection of test substance, methylphenidate, 60 mg/kg, is injected s.c. After administration of methylphenidate the mice are placed in the observation cages, 2 in each cage, where they remain for exactly 1 hour. The cages are placed on corrugated paper, the corrugations facing upwards. It is examined whether the mice have been biting the corrugated paper or not. […] If one or more of the control pairs have not been biting, the test has to be repeated on a new set of mice.
The result is stated in fractions: 0/3, 1/3, 2/3 and 3/3 where 0, 1, 2 and 3 are the number of pairs which have not been biting on receipt of the dose in question.
The results are calculated as the dose (ED50), which causes antagonism in 50% of the test animals.

[2] = Amphetamine antagonism (stereotypy in rats); type: in vivo; conditions: Rattus norvegicus
[3] = Catalepsy wire mesh, rat, max.; type: in vivo, rats; conditions: for ED50: Rattus norvegicus, sc, rats, s.c., strongest effect within first 6 hours, read-out: Catalepsy wire mesh, rat, max. ED50; for Cataleptic activity: in words
Procedure: Catalepsy wire mesh, rat, max. (ED50 mg/kg s.c.)
A vertical wire netting (50 cm×49 cm). The meshes (openings) of the netting are square (1 cm×1 cm). The wire diameter is 2 mm. Stop watch. Rats, male, 180-200 g.
The animals are labeled and used in groups of five. The test substance is injected subcutaneously (s.c.) (5 ml/kg) at 4 dose levels selected from the fixed dose scale.
The animals are placed in the middle of the vertical wire netting 60, 120, 180, 240, 300 and 360 minutes after injection of the test compound. The animals are considered cataleptic when they remain immobile during a period of 15 seconds. This cataleptic reaction is designated +. If the rats are "atonic" and passively slide down the wire mesh they are considered not cataleptic. If the animals climb up and down the wire mesh they are nor cataleptic. In both situations the designation - is used.

[4] = Neuroleptic effect: duration and strength (remarks of Table 2); type: in vivo; conditions: in words; for Duration (remarks, words): duration of neuroleptic effect; for Strength of effect (remarks, words): strength of neuroleptic effect
Source text: The pharmacological testing of the novel xanthones and thioxanthenes of Formula I consisted of standard and reliable tests. […]

[5] = Acute toxicity, LD50 in male rats following peroral administration; type: in vivo
Procedure: The acute toxicity, as measured by LD50 in male rats following peroral administration, is much lower for Lu 13-135 when compared with piflutixol one week after administration. The figure for Lu 13-135 is >60 mg/kg against 1.5 mg/kg for piflutixol.

[6] = 2 h, read-out: Methylphenidate antagonism ED50, 2 h
[7] = 24 h, read-out: Methylphenidate antagonism ED50, 24 h
[8] = ip, 24 h, read-out: Amphetamine antagonism ED50
[9] = mice, i.p., methylphenidate 60 mg/kg s.c. 2 h after test substance, read-out: Methylphenidate antagonism ED50, 2 h
[10] = mice, i.p., methylphenidate 60 mg/kg s.c. 24 h after test substance, read-out: Methylphenidate antagonism ED50, 24 h
[11] = po, read-out: Amphetamine antagonism ED50, p.o.

Row | Structure (SMILES) | ED50 [1, 6] [mg/kg] | ED50 [1, 7] [mg/kg] | ED50 [2, 8] [mg/kg] | ED50 [3] [mg/kg] | Duration (remarks, words) [4] | Strength of effect (remarks, words) [4] | ED50 [1, 9] [mg/kg] | ED50 [1, 10] [mg/kg] | Cataleptic activity [3] | Acute toxicity ([5]; in words, compared with related thioxanthenes (b9) or piflutixol) | LD50 at 168 h ([5]; rat, in vivo, po, male rats, p.o., one week after administration, read-out: LD50 p.o. in male rats after 1 week) [mg/kg] | ED50 [2, 11] [mg/kg]
1 | CN(C)CC/C=C1/c2ccccc2Sc2ccc(Cl)cc21 [chlorprothixene, reference compound] | 0.71 | > 20 | 6.1 | 4 | short acting | moderately strong |  |  |  |  |  | 
2 | CN1CCN(C2=Nc3cc(Cl)ccc3Nc3ccccc32)CC1 [clozapine, reference compound] | > 160 |  | > 40 | 85 | short acting | weak |  |  |  |  |  | 
3 | O[C@H]1CC[C@H](CN2CCC(=C3c4ccc(F)cc4Sc4ccc(C(F)(F)F)cc43)CC2)CC1 [Lu 13-135, 1-(trans-4-hydroxycyclohexylmethyl)-4-(2-trifluoromethyl-6-fluoro-9-thioxanthenyliden)-piperidine] |  |  | 0.32 | 0.4 | very long acting; also recorded: long acting | strong; also recorded: very strong | 0.32 | 0.19 | have a cataleptic activity | much lower | > 60 | 
4 | OCCN1CCN(CCC=C2c3ccccc3Sc3ccc(C(F)(F)F)cc32)CC1 [flupentixol, reference compound] | 0.2 | > 20 | 0.69 | 0.25 | short acting | strong |  |  |  |  |  | 
5 | CSc1ccc2c(c1)C(=C1CCN(C[C@H]3CC[C@H](O)CC3)CC1)c1ccccc1S2 [Lu 15-019, 1-(trans-4-hydroxycyclohexylmethyl)-4-(2-methylthio-9-thioxanthenylidene)-piperidine] |  |  | 0.59 | 0.6 | short acting | moderately strong | 0.77 | > 40 |  |  |  | 
6 | O[C@H]1CCC[C@H](CN2CCC(=C3c4ccc(F)cc4Sc4ccc(C(F)(F)F)cc43)CC2)C1 (relative stereo) [Lu 15-030, 1-(trans-3-hydroxycyclohexylmethyl)-4-(2-trifluoromethyl-6-fluoro-9-thioxanthenylidene)-piperidine] |  |  | 0.88 | 0.39 | long acting | very strong | 0.28 | 0.05 | have a cataleptic activity |  |  | 
7 | CSc1ccc2c(c1)C(=C1CCN(C[C@H]3CC[C@H](O)CC3)CC1)c1ccc(F)cc1O2 [Lu 15-119, 1-(Trans-4-hydroxycyclohexylmethyl)-4-(2-methylthio-6-fluoro-9-xanthenylidene)piperidine] |  |  | 0.56 | 0.08 | long acting | very strong | 0.09 | 0.11 | have a cataleptic activity |  |  | 
8 | O[C@@H]1CC[C@H](CN2CCC(=C3c4ccc(F)cc4Sc4ccc(C(F)(F)F)cc43)CC2)C[C@H]1O (relative stereo) [Lu 15-052, 1-(3-trans-4-cis-dihydroxycyclohexylmethyl)-4-(2-trifluoromethyl-6-fluoro-9-thioxanthenylidene)-piperidine] |  |  | 0.9 | 0.026 | long acting | strong; also recorded: very strong | 0.32 | 0.06 | have a cataleptic activity |  |  | 
9 | CSc1ccc2c(c1)C(=C1CCN(C[C@H]3CC[C@H](O)CC3)CC1)c1ccc(F)cc1S2 [Lu 14-116, 1-(trans-4-hydroxycyclohexylmethyl)-4-(2-methylthio-6-fluoro-9-thioxanthenylidene)-piperidine] |  |  | 0.28 | 0.58 | long acting | strong | 0.44 | 0.38 |  |  |  | 
10 | O=C1OCCN1CCN1CCC(=C2c3ccccc3Sc3ccc(Cl)cc32)CC1 [Lu 14-106, 1-(2-(2-Oxazolidinone-3-yl)ethyl)-4-(2-chloro-9-thioxanthenylidene)piperidine] |  |  | 1 | 6.6 | short acting | strong | 0.51 | > 40 |  |  |  | 
11 | O[C@H]1CC[C@@H](CN2CCC(=C3c4ccc(F)cc4Sc4ccc(C(F)(F)F)cc43)CC2)CC1 [Lu 15-013, 1-(cis-4-hydroxycyclohexylmethyl)-4-(2-trifluoromethyl-6-fluoro-9-thioxanthenylidene)piperidene] |  |  | 0.76 | 1.2 | long acting | strong | 0.63 | 0.1 |  |  |  | 
12 | Cc1ccc2c(c1)Sc1ccc(C(F)(F)F)cc1C2=C1CCN(C[C@H]2CC[C@H](O)CC2)CC1 [Lu 16-014, 1-(trans-4-hydroxycyclohexylmethyl)-4-(2-trifluoromethyl-6-methyl-9-thioxanthenylidene)-piperidine] |  |  | 1 | 0.97 | long acting | moderately strong | 0.31 | 1.9 |  |  |  | 
13 | O=C(CCCN1CCC(O)(c2ccc(Cl)cc2)CC1)c1ccc(F)cc1 [haloperidol, reference compound] | 0.06 |  | 0.14 | 0.21 | short acting | very strong |  |  |  |  |  | 
14 | COc1ccc2c(c1)C(=C1CCN(C[C@H]3CC[C@H](O)CC3)CC1)c1ccc(F)cc1S2 [Lu 16-052, 1-(trans-4-hydroxycyclohexylmethyl)-4-(2-methoxy-6-fluoro-9-thioxanthenylidene)-piperidine] |  |  | 0.56 | 0.23 | short acting | moderately strong | 0.31 | 29 |  |  |  | 
15 | O[C@H]1CC[C@H](CN2CCC(=C3c4ccccc4Sc4ccc(Cl)cc43)CC2)CC1 [Lu 14-047, 1-(trans-4-hydroxycyclohexylmethyl)-4-(2-chloro-9-thioxanthenylidene)-piperidine] |  |  | 0.32 | 3.5 | short acting | strong | 0.59 | > 20 |  |  |  | 
16 | O=C1CCC(CN2CCC(=C3c4ccc(F)cc4Sc4ccc(C(F)(F)F)cc43)CC2)CC1 [Lu 16-088] |  |  |  | 0.81 | long acting | strong | 0.77 | 0.06 |  |  |  | 0.3
17 | N[C@H]1CC[C@H](CN2CCC(=C3c4ccc(F)cc4Sc4ccc(C(F)(F)F)cc43)CC2)CC1 [Lu 16-042] |  |  |  | 3.3 | long acting | strong | 1.2 | 0.17 |  |  |  | 2.5
18 | O=C1NCCN1CCN1CCC(=C2c3ccc(F)cc3Sc3ccc(C(F)(F)F)cc32)CC1 [Lu 16-104] |  |  | 0.15 | 0.11 | relatively short acting | strong | 0.06 | 1.5 |  |  |  | 
19 | O=C1OCCN1CCN1CCC(=C2c3ccc(F)cc3Sc3ccc(Cl)cc32)CC1 [Lu 14-117, 1-(2-(2-Oxazolidinon-3-yl)ethyl)-4-(2-chloro-6-fluoro-9-thioxanthenylidene)piperidine] |  |  | 0.34 | 1 | short acting | strong | 0.21 | 29 |  |  |  | 
20 | OC1CC(O)(CN2CCC(=C3c4ccc(F)cc4Sc4ccc(C(F)(F)F)cc43)CC2)CC(O)C1O (stereo not drawn) [Lu 15-089] |  |  | 1.8 | 2.7 | relatively short acting |  | 0.32 | 0.32 |  |  |  | 
